{
  "source": "patent US9302999B2",
  "about": "“Substituted triazoles as herbicides” (E. I. DU PONT DE NEMOURS AND COMPANY, priority 2012, dated 2016)",
  "assay_type_in_all_cases": "in vivo",
  "key": {"[1]": {"test_system": "bromegrass, downy (downy bromegrass, Bromus tectorum)", "test": "Test C pre-/postemergence: bromegrass, downy", "in_short": "(§1)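 Visual injury scored 0–100 (100 = complete control) against untreated controls after 13–15 greenhouse days. Surfactant-containing solvent formulations applied either to soil after sowing (loam/sand) or over 1- to 4-leaf plants, 2–18 cm tall.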"}, "[2]": {"test_system": "windgrass (Apera spica-venti)", "test": "Test D pre-/postemergence: windgrass", "in_short": "(§2)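 Applied as a non-phytotoxic solvent formulation with surfactant, compounds were tested preemergence in silt loam and postemergence on seedlings 2 to 18 cm high in peat-vermiculite medium. Evaluation was visual, 0 meaning no effect and 100 complete control, at 14 to 21 days.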"}, "[3]": {"test_system": "ducksalad (Heteranthera limosa)", "test": "Test C flooded paddy test: ducksalad", "conditions": "Heteranthera limosa, scale 0 to 100 (0 no effect, 100 complete control), read-out: Plant response rating, Ducksalad", "in_short": "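Greenhouse plants treated at the 2-leaf stage by dosing the flood water (3 cm depth, maintained) were compared with controls after 13 to 15 days and rated 0 to 100, where 100 means complete control; a dash marks no test result.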"}, "[4]": {"test_system": "chamomile (scentless chamomile, Matricaria inodora)", "test": "Test D pre-/postemergence: chamomile", "in_short": "as §2"}, "[5]": {"test_system": "barley, spring (spring barley, Hordeum vulgare)", "test": "Test D pre-/postemergence: barley, spring", "in_short": "as §2"}, "[6]": {"test_system": "woolly cupgrass (Eriochloa villosa)", "test": "Test C pre-/postemergence: woolly cupgrass", "in_short": "as §1"}, "[7]": {"test_system": "oilseed rape (Brassica napus)", "test": "Test D pre-/postemergence: oilseed rape", "in_short": "as §2"}, "[8]": {"test_system": "deadnettle (henbit deadnettle, Lamium amplexicaule)", "test": "Test C postemergence: deadnettle", "in_short": "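Response values are visual ratings, 0 (no effect) to 100 (complete control), made by comparison with untreated controls 13 to 15 days after postemergence treatment of greenhouse-grown potted plants that were 2 to 18 cm high at spraying.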"}, "[9]": {"conditions": "Postemergence, 31 g ai/ha, scale 0 to 100 (0 no effect, 100 complete control)"}, "[10]": {"conditions": "Postemergence, 62 g ai/ha, scale 0 to 100 (0 no effect, 100 complete control)"}, "[11]": {"conditions": "Postemergence, 125 g ai/ha, scale 0 to 100, 0 no effect, 100 complete control"}, "[12]": {"conditions": "Postemergence, 250 g ai/ha, scale 0 to 100"}, "[13]": {"conditions": "Preemergence, 31 g ai/ha, scale of 0 to 100, 0 is no effect, 100 is complete control"}, "[14]": {"conditions": "Preemergence, 125 g ai/ha, scale 0 to 100, 0 no effect, 100 complete control"}, "[15]": {"conditions": "Preemergence, 250 g ai/ha, scale 0 to 100, 0 no effect, 100 complete control"}, "[16]": {"conditions": "Postemergence, 250 g ai/ha, scale 0 to 100 (0 no effect, 100 complete control)"}, "[17]": {"conditions": "Postemergence, 16 g ai/ha, scale 0 to 100"}, "[18]": {"conditions": "Preemergence, 16 g ai/ha, scale 0 to 100 (0 no effect, 100 complete control)"}, "[19]": {"conditions": "Preemergence, 31 g ai/ha, scale 0 to 100 (0 no effect, 100 complete control)"}, "[20]": {"conditions": "Preemergence, 62 g ai/ha, scale 0 to 100"}, "[21]": {"conditions": "Preemergence, 125 g ai/ha, scale 0 to 100"}, "[22]": {"conditions": "Preemergence, 250 g ai/ha, scale 0 to 100"}},
  "data": [
    {"smiles": "Cc1nn(-c2ccc(F)cc2)nc1Oc1ccnc(C(F)(F)F)c1", "note": "[Compound 129, 4-[[2-(4-fluorophenyl)-5-methyl-2H-1,2,3-triazol-4-yl]oxy]-2-(trifluoromethyl)pyridine]", "values": [
      {"measurement": "Plant response rating, Bromegrass, Downy", "setting": "[1]; [9]", "result": 35},
      {"measurement": "Plant response rating, Bromegrass, Downy", "setting": "[1]; [10]", "result": 35},
      {"measurement": "Plant response rating, Bromegrass, Downy", "setting": "[1]; [11]", "result": 40},
      {"measurement": "Plant response rating, Bromegrass, Downy", "setting": "[1]; [12]", "result": 40},
      {"measurement": "Plant response rating, Bromegrass, Downy", "setting": "[1]; [13]", "result": 30},
      {"measurement": "Plant response rating, Bromegrass, Downy", "setting": "[1]; Preemergence, 62 g ai/ha, scale 0 to 100, 0 no effect, 100 complete control", "result": 80},
      {"measurement": "Plant response rating, Bromegrass, Downy", "setting": "[1]; [14]", "result": 95},
      {"measurement": "Plant response rating, Bromegrass, Downy", "setting": "[1]; [15]", "result": 100},
      {"measurement": "Plant response rating: Windgrass", "setting": "[2]; [9]", "result": 20},
      {"measurement": "Plant response rating: Windgrass", "setting": "[2]; [10]", "result": 30},
      {"measurement": "Plant response rating: Windgrass", "setting": "[2]; [11]", "result": 70},
      {"measurement": "Plant response rating: Windgrass", "setting": "[2]; [16]", "result": 95},
      {"measurement": "Plant response rating, Windgrass", "setting": "[2]; [17]", "result": 15},
      {"measurement": "Plant response rating, Windgrass", "setting": "[2]; [18]", "result": 0},
      {"measurement": "Plant response rating, Windgrass", "setting": "[2]; [19]", "result": 0},
      {"measurement": "Plant response rating, Windgrass", "setting": "[2]; [20]", "result": 10},
      {"measurement": "Plant response rating, Windgrass", "setting": "[2]; [21]", "result": 75},
      {"measurement": "Plant response rating, Windgrass", "setting": "[2]; [22]", "result": 100},
      {"measurement": "pest or weed control at 125 g/ha", "setting": "[3]; Flood (flooded paddy test), 125 g ai/ha, visual rating after 13 to 15 days", "result": 80, "unit": "%"},
      {"measurement": "pest or weed control at 250 g/ha", "setting": "[3]; Flood (flooded paddy test), 250 g ai/ha, visual rating after 13 to 15 days", "result": 90, "unit": "%"},
      {"measurement": "pest or weed control at 31 g/ha", "setting": "[3]; Flood, 31 g ai/ha", "result": 70, "unit": "%"},
      {"measurement": "pest or weed control at 62 g/ha", "setting": "[3]; Flood, 62 g ai/ha", "result": 75, "unit": "%"},
      {"measurement": "Plant response rating: Chamomile", "setting": "[4]; [9]", "result": 30},
      {"measurement": "Plant response rating: Chamomile", "setting": "[4]; [10]", "result": 30},
      {"measurement": "Plant response rating: Chamomile", "setting": "[4]; [11]", "result": 30},
      {"measurement": "Plant response rating: Chamomile", "setting": "[4]; [16]", "result": 35},
      {"measurement": "Plant response rating, Chamomile", "setting": "[4]; [17]", "result": 20},
      {"measurement": "Plant response rating, Chamomile", "setting": "[4]; [18]", "result": 0},
      {"measurement": "Plant response rating, Chamomile", "setting": "[4]; [19]", "result": 30},
      {"measurement": "Plant response rating, Chamomile", "setting": "[4]; [20]", "result": 30},
      {"measurement": "Plant response rating, Chamomile", "setting": "[4]; [21]", "result": 30},
      {"measurement": "Plant response rating, Chamomile", "setting": "[4]; [22]", "result": 100},
      {"measurement": "Plant response rating: Barley, Spring", "setting": "[5]; [9]", "result": 5},
      {"measurement": "Plant response rating: Barley, Spring", "setting": "[5]; [10]", "result": 5},
      {"measurement": "Plant response rating: Barley, Spring", "setting": "[5]; [11]", "result": 10},
      {"measurement": "Plant response rating: Barley, Spring", "setting": "[5]; [16]", "result": 10},
      {"measurement": "Plant response rating, Barley, Spring", "setting": "[5]; [17]", "result": 5},
      {"measurement": "Plant response rating, Barley, Spring", "setting": "[5]; [18]", "result": 0},
      {"measurement": "Plant response rating, Barley, Spring", "setting": "[5]; [19]", "result": 0},
      {"measurement": "Plant response rating, Barley, Spring", "setting": "[5]; [20]", "result": 5},
      {"measurement": "Plant response rating, Barley, Spring", "setting": "[5]; [21]", "result": 15},
      {"measurement": "Plant response rating, Barley, Spring", "setting": "[5]; [22]", "result": 20},
      {"measurement": "Plant response rating, Cupgrass, Woolly", "setting": "[6]; [9]", "result": 35},
      {"measurement": "Plant response rating, Cupgrass, Woolly", "setting": "[6]; [10]", "result": 65},
      {"measurement": "Plant response rating, Cupgrass, Woolly", "setting": "[6]; [11]", "result": 65},
      {"measurement": "Plant response rating, Cupgrass, Woolly", "setting": "[6]; [12]", "result": 70},
      {"measurement": "Plant response rating, Cupgrass, Woolly", "setting": "[6]; [13]", "result": 80},
      {"measurement": "Plant response rating, Cupgrass, Woolly", "setting": "[6]; Preemergence, 62 g ai/ha, scale of 0 to 100, 0 is no effect, 100 is complete control", "result": 95},
      {"measurement": "Plant response rating, Cupgrass, Woolly", "setting": "[6]; [14]", "result": 98},
      {"measurement": "Plant response rating, Cupgrass, Woolly", "setting": "[6]; [15]", "result": 98},
      {"measurement": "Plant response rating: Oilseed Rape", "setting": "[7]; [9]", "result": 80},
      {"measurement": "Plant response rating: Oilseed Rape", "setting": "[7]; [10]", "result": 95},
      {"measurement": "Plant response rating: Oilseed Rape", "setting": "[7]; [11]", "result": 100},
      {"measurement": "Plant response rating: Oilseed Rape", "setting": "[7]; [16]", "result": 100},
      {"measurement": "Plant response rating, Oilseed Rape", "setting": "[7]; [17]", "result": 80},
      {"measurement": "Plant response rating, Oilseed Rape", "setting": "[7]; [18]", "result": 0},
      {"measurement": "Plant response rating, Oilseed Rape", "setting": "[7]; [19]", "result": 0},
      {"measurement": "Plant response rating, Oilseed Rape", "setting": "[7]; [20]", "result": 10},
      {"measurement": "Plant response rating, Oilseed Rape", "setting": "[7]; [21]", "result": 30},
      {"measurement": "Plant response rating, Oilseed Rape", "setting": "[7]; [22]", "result": 60},
      {"measurement": "Plant response rating, Deadnettle", "setting": "[8]; 31 g ai/ha, scale 0 to 100 (0 no effect, 100 complete control)", "result": 100},
      {"measurement": "Plant response rating, Deadnettle", "setting": "[8]; 62 g ai/ha, scale 0 to 100 (0 no effect, 100 complete control)", "result": 100},
      {"measurement": "Plant response rating, Deadnettle", "setting": "[8]; 125 g ai/ha, scale 0 to 100, 0 no effect, 100 complete control", "result": 100},
      {"measurement": "Plant response rating, Deadnettle", "setting": "[8]; 250 g ai/ha, scale 0 to 100", "result": 100}
    ]}
  ]
}
